Results reported in US8653276B2 (SANOFI, priority 2008, dated 2014).
Counter-ions that a name gives are not always drawn.

test system: not given; assay: not given

| melting point [°C] | SMILES |
| --- | --- |
| 138 | COC(=O)C1(NC(=O)c2ccc(-c3cc4c(cc3C)OCO4)c(-c3ccc(Cl)c(OCCCN(C)C)c3)n2)CCCCC1 (as salt: hydrochloride) [Compound 11, methyl 1-({[6-{4-chloro-3-[3-(dimethylamino)propoxy]phenyl}-5-(6-methyl-1,3-benzodioxol-5-yl)pyridin-2-yl]carbonyl}amino)cyclohexanecarboxylate] |
| 112 | CCOc1ccc(Cl)c(-c2ncc(C(=O)N[C@@H](CC(=O)OC)C(C)(C)C)nc2-c2ccc(Cl)c(OCCCN(C)C)c2)c1 (as salt: hydrochloride) [Compound 24, methyl(3S)-3-({[6-{4-chloro-3-[3-(dimethylamino)propoxy]phenyl}-5-(2-chloro-5-ethoxyphenyl)pyrazin-2-yl]carbonyl}amino)-4,4-dimethylpentanoate] |
| 158 | COC(=O)C1(NC(=O)c2ccc(-n3nc(C)cc3C)c(-c3ccc(Cl)c(OCCCN(C)C)c3)n2)CCCCC1 (as salt: hydrochloride) [Compound 18, methyl 1-({[6-{4-chloro-3-[3-(dimethylamino)propoxy]phenyl}-5-(3,5-dimethyl-1H-pyrazol-1-yl)pyridin-2-yl]carbonyl}amino)cyclohexanecarboxylate] |
| 135 | COC(=O)C1(NC(=O)c2ccc(-c3ccccc3Cl)c(-c3ccc(Cl)c(OCCCN(C)C)c3)n2)C2CC3CC(C2)CC1C3 (stereo not shown) (as salt: hydrochloride) [Compound 26, methyl 2-({[6-{4-chloro-3-[3-(dimethylamino)propoxy]phenyl}-5-(2-chlorophenyl)pyridin-2-yl]carbonyl}amino)adamantane-2-carboxylate] |
| 152 | COC(=O)C1(NC(=O)c2ccc(-c3ncc(C)cc3Cl)c(-c3ccc(Cl)c(OCCCN(C)C)c3)n2)CCCCC1 (as salt: hydrochloride) [Compound 5, methyl 1-{[(3-chloro-2′-{4-chloro-3-[3-(dimethylamino)propoxy]phenyl}-5-methyl-2,3′-bipyridin-6′-yl)carbonyl]amino}cyclohexanecarboxylate] |
| 93 | Cc1ccccc1-c1ccc(C(=O)N[C@@H](CCO)C(C)(C)C)nc1-c1ccc(Cl)c(OCCCN(C)C)c1 (as salt: hydrochloride) |
| 90 | CCOC(=O)C[C@H](NC(=O)c1ccc(-c2ccccc2C)c(-c2ccc(Cl)c(OCCCN(C)C)c2)n1)C(C)(C)C (as salt: hydrochloride) [Compound 29, ethyl(3S)-3-({[6-{4-chloro-3-[3-(dimethylamino)propoxy]phenyl}-5-(2-methylphenyl)pyridin-2-yl]carbonyl}amino)-4,4-dimethylpentanoate] |
| 117 | CCCOc1ccc(Cl)c(-c2ccc(C(=O)NC3(C(=O)OC)CCCCC3)nc2-c2ccc(Cl)c(OCCCN(C)C)c2)c1 (as salt: hydrochloride) [Compound 9, methyl 1-({[6-{4-chloro-3-[3-(dimethylamino)propoxy]phenyl}-5-(2-chloro-5-propoxyphenyl)pyridin-2-yl]carbonyl}amino)cyclohexanecarboxylate] |
| 114 | COC(=O)C1(NC(=O)c2ccc(-c3cc(C4CC4)ccc3C)c(-c3ccc(Cl)c(OCCCN(C)C)c3)n2)CCCCC1 (as salt: hydrochloride) [Compound 7, methyl 1-({[6-{4-chloro-3-[3-(dimethylamino)propoxy]phenyl}-5-(5-cyclopropyl-2-methylphenyl)pyridin-2-yl]carbonyl}amino)cyclohexanecarboxylate] |

molecular target: T1, human GPR14 receptor (Homo sapiens, UniProt Q9UKP6); assay: cell-based
T1 sequence (Q9UKP6 1-389): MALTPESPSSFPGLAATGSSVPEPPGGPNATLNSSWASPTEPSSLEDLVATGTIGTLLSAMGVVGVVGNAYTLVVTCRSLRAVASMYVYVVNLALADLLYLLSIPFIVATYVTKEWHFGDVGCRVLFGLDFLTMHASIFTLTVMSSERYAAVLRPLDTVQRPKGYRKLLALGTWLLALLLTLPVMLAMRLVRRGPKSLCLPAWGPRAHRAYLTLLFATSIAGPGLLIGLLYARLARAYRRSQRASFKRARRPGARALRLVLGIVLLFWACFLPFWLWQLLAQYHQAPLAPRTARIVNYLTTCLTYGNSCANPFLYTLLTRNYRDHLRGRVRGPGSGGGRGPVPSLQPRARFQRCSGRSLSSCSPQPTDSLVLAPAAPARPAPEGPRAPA
Method: GPR14 is a 7-domain transmembrane receptor coupled to Gq. Its activation with a specific ligand causes an increase in Ca^2+ in the cell via the PLC (phospholipase C), IP3 (inositol-1,4,5-triphosphate) DAG (diacylglycerol) route.
The increase in Ca^2+ in the cell is measured using a Fluo4AM permeating probe (monoexcitation, monoemission probe) which binds to the free Ca^2+ and emits at 520 nm. The free probe is nonfluorescent in the absence of Ca^2+.
Experiment Plan • 1) Seeding of the cells on D-1 (day-1) or D-2 • 2) Incorporation/charge (D0) of the probe (1 h) • 3) Addition of the products to the FlipR and measurement • 4) Addition of the ligand to the FlipR and measurement in the presence of the products • 5) Processing and exportation of the data
The cells are cultured in whole medium in a T225 flask. For the experiments, the cells are subcultured in 200 μl of culture medium in transparent-bottomed black 96-well plates at a rate of 60 000 cells/well for a use on D+1 or 40 000 cells/well for a use on D+2.
Fluo-4AM is prepared at 20 mM and then divided into aliquots (50 μl) and stored at −20° C. sheltered from light. A solution of pluronic acid at 200 mg/ml in DMSO is also prepared (it keeps for one week at room temperature sheltered from light).
The cells are charged with the mixture of Fluo-4AM+pluronic acid (aliquots of 50 μl+50 μl of pluronic acid) diluted to 1/100 in the measuring buffer.
After washing the wells with 150 μl of measuring buffer (cf. appendix), the cells are then charged in the following manner: • distribution of 100 μl of measuring buffer into each well • addition of 10 μl of the Fluo-4AM+pluronic acid mixture diluted to 1/100.
The cells are incubated for 1 hour at 37° C. sheltered from light, in an incubator in the presence of 5% CO2.
The cells are then washed 3 times with 150 μl of measuring buffer to remove the excess probe. A volume of 150 μl of buffer is added to each well at the end of washing.
After incubating the plates for 20 minutes at room temperature sheltered from light, they are placed in the FlipR for the fluorescence measurement.
The basic level of incorporation of the Fluo-4 is checked for each plate (sd<10%) before the first injection.
After stabilizing the base signal, the GPR14 inhibitor compounds are injected via the FlipR in a volume of 50 μl using a dilution plate prepared with Biomek 2000 as measuring buffer.
The data are recorded continuously throughout the experiment.
For each plate, the base fluorescence before injection of the compounds is normalized via the “spatial uniformity correction” function of the FlipR. […] In each plate, a series of wells is treated with urotensin alone in the absence of inhibitor compound.
The percentage of inhibition for each concentration of product is calculated as described below: Inhibition(%)=100×(delta Uro II−delta product)/delta Uro II

| IC50 [nM] | SMILES |
| --- | --- |
| 253 | CCOC(=O)C[C@H](NC(=O)c1ccc(-c2ccccc2C)c(-c2ccc(Cl)c(OCCCN(C)C)c2)n1)C(C)(C)C [Compound 29, ethyl(3S)-3-({[6-{4-chloro-3-[3-(dimethylamino)propoxy]phenyl}-5-(2-methylphenyl)pyridin-2-yl]carbonyl}amino)-4,4-dimethylpentanoate] |
| 102 | CCOc1ccc(Cl)c(-c2ncc(C(=O)N[C@@H](CC(=O)OC)C(C)(C)C)nc2-c2ccc(Cl)c(OCCCN(C)C)c2)c1 [Compound 24, methyl(3S)-3-({[6-{4-chloro-3-[3-(dimethylamino)propoxy]phenyl}-5-(2-chloro-5-ethoxyphenyl)pyrazin-2-yl]carbonyl}amino)-4,4-dimethylpentanoate] |
| 450 | CNC(=O)C[C@H](NC(=O)c1ccc(-c2ccccc2C)c(-c2ccc(Cl)c(OCCCN(C)C)c2)n1)C(C)(C)C [Compound 33, 6-{4-chloro-3-[3-(dimethylamino)propoxy]phenyl}-N-{(1S)-2,2-dimethyl-1-[2-(methylamino)-2-oxoethyl]propyl}-5-(2-methylphenyl)pyridine-2-carboxamide] |
| 1600 | COC(=O)C1(NC(=O)c2ccc(-c3ncc(Cl)cc3Cl)c(-c3ccc(Cl)c(OCCCN(C)C)c3)n2)CCCCC1 [Compound 1, methyl 1-{[(3,5-dichloro-2′-{4-chloro-3-[3-(dimethylamino)propoxy]phenyl}-2,3′-bipyridin-6′-yl)carbonyl]amino}cyclohexanecarboxylate] |
| 1400 | CCCOc1ccc(Cl)c(-c2ccc(C(=O)NC3(C(=O)OC)CCCCC3)nc2-c2ccc(Cl)c(OCCCN(C)C)c2)c1 [Compound 9, methyl 1-({[6-{4-chloro-3-[3-(dimethylamino)propoxy]phenyl}-5-(2-chloro-5-propoxyphenyl)pyridin-2-yl]carbonyl}amino)cyclohexanecarboxylate] |
| 330 | COC(=O)C1(NC(=O)c2ccc(-c3cc(C4CC4)ccc3C)c(-c3ccc(Cl)c(OCCCN(C)C)c3)n2)CCCCC1 [Compound 7, methyl 1-({[6-{4-chloro-3-[3-(dimethylamino)propoxy]phenyl}-5-(5-cyclopropyl-2-methylphenyl)pyridin-2-yl]carbonyl}amino)cyclohexanecarboxylate] |
| 95 | COC(=O)[C@]1(NC(=O)c2ccc(-c3ccccc3C)c(-c3ccc(Cl)c(OCCCN(C)C)c3)n2)CC[C@@H](O)CC1 [Compound 42, methyl cis-1-({[6-{4-chloro-3-[3-(dimethylamino)propoxy]phenyl}-5-(2-methylphenyl)pyridin-2-yl]carbonyl}amino)-4-hydroxycyclohexanecarboxylate] |
| 566 | COC(=O)C1(NC(=O)c2ccc(-c3cc4c(cc3C)OCO4)c(-c3ccc(Cl)c(OCCCN(C)C)c3)n2)CCCCC1 [Compound 11, methyl 1-({[6-{4-chloro-3-[3-(dimethylamino)propoxy]phenyl}-5-(6-methyl-1,3-benzodioxol-5-yl)pyridin-2-yl]carbonyl}amino)cyclohexanecarboxylate] |
| 846 | COC(=O)C1(NC(=O)c2ccc(-c3ncc(C)cc3C)c(-c3ccc(Cl)c(OCCCN(C)C)c3)n2)CCCCC1 [Compound 13, methyl 1-{[(2′-{4-chloro-3-[3-(dimethylamino)propoxy]phenyl}-3,5-dimethyl-2,3′-bipyridin-6′-yl)carbonyl]amino}cyclohexanecarboxylate] |
| 1700 | COC(=O)C1(NC(=O)c2ccc(-c3ccc(O)cc3C)c(-c3ccc(Cl)c(OCCCN(C)C)c3)n2)CCCCC1 [Compound 2, methyl 1-({[6-{4-chloro-3-[3-(dimethylamino)propoxy]phenyl}-5-(4-hydroxy-2-methylphenyl)pyridin-2-yl]carbonyl}amino)cyclohexanecarboxylate] |
| 170 | COC(=O)C1(NC(=O)c2ccc(-c3ccccc3Cl)c(-c3ccc(Cl)c(OCCCN(C)C)c3)n2)C2CC3CC(C2)CC1C3 (stereo not shown) [Compound 26, methyl 2-({[6-{4-chloro-3-[3-(dimethylamino)propoxy]phenyl}-5-(2-chlorophenyl)pyridin-2-yl]carbonyl}amino)adamantane-2-carboxylate] |
| 660 | COC(=O)[C@]1(NC(=O)c2ccc(-c3ncc(C)cc3Cl)c(-c3ccc(Cl)c(OCCCN(C)C)c3)n2)CC[C@@H](O)CC1 [Compound 44, methyl cis-1-{[(3-chloro-2′-{4-chloro-3-[3-(dimethylamino)propoxy]phenyl}-5-methyl-2,3′-bipyridin-6′-yl)carbonyl]amino}-4-hydroxycyclohexanecarboxylate] |
| 1080 | COC(=O)C1(NC(=O)c2ccc(-n3nc(C)cc3C)c(-c3ccc(Cl)c(OCCCN(C)C)c3)n2)CCCCC1 [Compound 18, methyl 1-({[6-{4-chloro-3-[3-(dimethylamino)propoxy]phenyl}-5-(3,5-dimethyl-1H-pyrazol-1-yl)pyridin-2-yl]carbonyl}amino)cyclohexanecarboxylate] |
| 630 | COC(=O)C1(NC(=O)c2ccc(-c3ccccc3C)c(-c3ccc(Cl)c(OCCCN(C)C)c3)n2)CCCCC1 [Compound 4, methyl 1-({[6-{4-chloro-3-[3-(dimethylamino)propoxy]phenyl}-5-(2-methylphenyl)pyridin-2-yl]carbonyl}amino)cyclohexanecarboxylate] |
| 116 | COC(=O)C1(NC(=O)c2cnc(-c3ccc(C)cc3C)c(-c3ccc(Cl)c(OCCCN(C)C)c3)n2)CCCCC1 [Compound 20, methyl 1-({[6-{4-chloro-3-[3-(dimethylamino)propoxy]phenyl}-5-(2,4-dimethylphenyl)pyrazin-2-yl]carbonyl}amino)cyclohexanecarboxylate] |
| 540 | COC(=O)C1(NC(=O)c2ccc(-c3ncc(C)cc3Cl)c(-c3ccc(Cl)c(OCCCN(C)C)c3)n2)CCCCC1 [Compound 5, methyl 1-{[(3-chloro-2′-{4-chloro-3-[3-(dimethylamino)propoxy]phenyl}-5-methyl-2,3′-bipyridin-6′-yl)carbonyl]amino}cyclohexanecarboxylate] |
